Results from ChEMBL document CHEMBL1131362, “Synthesis and anticholinesterase activity of huperzine A analogues containing phenol and catechol replacements for the pyridone ring” (Bioorg Med Chem Lett, 1998).
Activity calls are given as the source filed them. The calls are words filed in the database; no cut-off is given here.

Tests used:
[1] = molecular target: T1, Acetylcholinesterase (Bos taurus) (UniProt P23795); assay: Compound was tested for acetylcholinesterase inhibitory activity at concentration uM; Inactive
T1 sequence (whole entry): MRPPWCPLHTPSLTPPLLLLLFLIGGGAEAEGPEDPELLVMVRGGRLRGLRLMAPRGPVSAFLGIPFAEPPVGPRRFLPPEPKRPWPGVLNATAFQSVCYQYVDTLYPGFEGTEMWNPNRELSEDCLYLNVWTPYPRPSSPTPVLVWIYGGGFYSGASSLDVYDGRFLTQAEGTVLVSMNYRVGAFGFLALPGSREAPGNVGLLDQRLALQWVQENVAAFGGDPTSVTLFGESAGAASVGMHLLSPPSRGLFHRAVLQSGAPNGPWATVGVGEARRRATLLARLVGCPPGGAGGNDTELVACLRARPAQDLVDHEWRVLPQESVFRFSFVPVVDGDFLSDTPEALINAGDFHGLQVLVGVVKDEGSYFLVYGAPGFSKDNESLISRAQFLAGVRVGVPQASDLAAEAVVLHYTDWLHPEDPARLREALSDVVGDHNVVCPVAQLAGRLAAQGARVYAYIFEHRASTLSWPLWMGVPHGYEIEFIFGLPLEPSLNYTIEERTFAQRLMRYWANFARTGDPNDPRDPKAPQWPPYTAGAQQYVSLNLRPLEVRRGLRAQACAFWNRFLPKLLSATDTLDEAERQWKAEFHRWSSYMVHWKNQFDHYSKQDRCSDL

[2] = molecular target: T1, Acetylcholinesterase (Bos taurus); assay: Compound was tested for acetylcholinesterase inhibition at concentration uM; No Inhibition

Compound | inhibition [1] | inhibition [2]
C/C=C1\C2C=C(C)C[C@]1(N)c1ccc(O)cc1C2 | inactive | –
C/C=C1\C2C=C(C)C[C@]1(N)c1ccc(O)c(O)c1C2 | – | inactive
